Article PMC9088016, “Synthesis and biological evaluation of phosphatidylcholines with cinnamic and 3-methoxycinnamic acids with potent antiproliferative activity” (RSC Advances, 2018)
Read-outs that look alike come from different tables or passages of the source.

Tests used:
LoVo/DX cells = experiment: Antiproliferative assay in vitro (SRB), 72 h; assay type: cell-based, human; conditions: for Resistance index (RI): doxorubicin-resistant LoVo/DX cell line versus LoVo; for IC50: doxorubicin-resistant colon cancer cells, SRB, 72 h exposure, mean ± SD
Procedure: (§1) Biophenotypic B myelomonocytic leukaemia MV4-11, human lung carcinoma A549, human breast carcinoma MCF-7, human colon carcinoma LoVo, its drug resistant line LoVo/DX, liver carcinoma HepG2, and normal mouse fibroblast BALB/3T3 cells were obtained from the American Type Culture Collection (Rockville, Maryland, USA). All lines are being maintained at the Institute of Immunology and Experimental Therapy, Wrocław, Poland. All cell lines were grown in a humid atmosphere at 37 °C with 5% CO2 and were cultured in media according to the method described before.[18]
(§2) Prior to usage, the compounds were dissolved in DMSO to the concentration of 25 or 50 mM, and subsequently diluted in the culture medium to reach the required concentrations (ranging from 5 to 625 μM).
(§3) Twenty-four hours before addition of the tested compounds, the cells were plated in 96-well plates (Sarstedt, USA) at a density of 10^4 cells per well. All cell lines were exposed to each tested phosphatidylcholines for 72 h. Cells were also exposed to the commercially available drugs cisplatin and doxorubicin. Cell lines were also exposed to the solvent used for the tested compounds (DMSO) at concentrations corresponding to those present in the tested agents' dilutions. For adherent cells, a SRB assay was performed and an MTT assay was performed for leukaemia cells.
(§4) The cytotoxicity assay was performed after 72 h exposure of the cultured cells to varying concentrations (from 5 to 625 μM) of the tested agents. The cells attached to the plastic were fixed in situ by gently adding 50 μL per well of cold 50% TCA (trichloroacetic acid). The plates were incubated at 4 °C for 1 h and then washed five times with tap water. The background optical density was measured in the wells filled with culture medium, without the cells. The cellular material fixed with TCA was stained with 50 μL of 0.4% sulforhodamine B (SRB) dissolved in 1% acetic acid for 30 min. Unbound dye was removed by rinsing (4×) with 1% acetic acid. The protein-bound dye was extracted with 10 mM unbuffered Tris base for determination of the optical density (at 540 nm) in a computer-interfaced 96-well microtiter plate reader Multiskan RC photometer (Labsystems, Helsinki, Finland). Each compound in the given concentration was tested in triplicate in each experiment, which was repeated 3–5 times.
(§5) The results of the cytotoxic activity in vitro were expressed as IC50—the concentration of compound (in μM) that inhibits the proliferation rate of the tumor cells by 50% as compared to control untreated cells.

BALB/3T3 cells = experiment: Antiproliferative assay in vitro (SRB), 72 h; assay type: cell-based, mouse; conditions: 72 h exposure, mean ± SD
Procedure: as §1, §2, §3, §4, §5

MCF-7 cells = experiment: Antiproliferative assay in vitro (SRB), 72 h; assay type: cell-based, human; conditions: 72 h exposure, mean ± SD
Procedure: as §1, §2, §3, §4, §5

LoVo cells = experiment: Antiproliferative assay in vitro (SRB), 72 h; assay type: cell-based, human; conditions: colon cancer cells, 72 h exposure, mean ± SD
Procedure: as §1, §2, §3, §4, §5

HepG2 cells = experiment: Antiproliferative assay in vitro (SRB), 72 h; assay type: cell-based, human; conditions: 72 h exposure, mean ± SD
Procedure: as §1, §2, §3, §4, §5

A549 cells = experiment: Antiproliferative assay in vitro (SRB), 72 h; assay type: cell-based, human; conditions: 72 h exposure, mean ± SD, read-out: IC50 A-549
Procedure: as §1, §2, §3, §4, §5

MV4-11 cells = experiment: Antiproliferative assay in vitro (MTT), 72 h; assay type: cell-based, human; conditions: leukaemia cells; for IC50: MTT, 72 h exposure, mean ± SD
Procedure: as §1, §2, §3
This technique was applied for the cytotoxicity screening against leukemia cells. An assay was performed after 72 h exposure to varying concentrations (from 5 to 625 μM) of the tested agents. For the last 3–4 hours of incubation. 20 μL of MTT solution was added to each well (MTT: 3-(4,5-dimethylthiazol-2-yl)-2,5-diphenyl tetrazolium bromide; stock solution: 5 mg mL^−1, Sigma, Germany). The mitochondria of viable cells reduce the pale yellow MTT to a navy blue formazan: the more viable cells are present in a well, the more MTT will be reduced to formazan. When the incubation time was completed, 80 μL of the lysing mixture was added to each well (lysing mixture: 225 mL dimethylformamide, 67.5 g sodium dodecyl sulphate, and 275 mL of distilled water). After 24 h, when formazan crystals had been dissolved, the optical densities of the samples were read with a Multiskan RC photometer at 570 nm wavelength. Each compound in a given concentration was tested in triplicate in each experiment, which was repeated 3–5 times.
as §5

[1] = Mus musculus, BALB/3T3, normal mice fibroblast cells
[2] = Homo sapiens, MCF7, breast cancer cells
[3] = Homo sapiens, HepG2, liver cancer cells
[4] = Homo sapiens, A549, lung cancer cells

| IC50 (LoVo/DX cells; Homo sapiens, LoVo/DX) [µM] | IC50 (MCF-7 cells; [2]) [µM] | IC50 (LoVo cells; Homo sapiens, LoVo) [µM] | IC50 (HepG2 cells; [3]) [µM] | IC50 (A549 cells; [4]) [µM] | IC50 (MV4-11 cells; Homo sapiens, MV4-11) [µM] | IC50 (LoVo/DX cells) [µM] | IC50 (MCF-7 cells; breast cancer cells) [µM] | IC50 (LoVo cells) [µM] | IC50 (HepG2 cells; liver cancer cells) [µM] | IC50 (A549 cells; lung cancer cells) [µM] | IC50 (MV4-11 cells) [µM] | Fold lower IC50 than free cinnamic / 3-methoxycinnamic acid (MV4-11 cells; versus corresponding free acid) [fold] | Molecule | Resistance index (RI) (LoVo/DX cells) | IC50 (BALB/3T3 cells; [1]) [µM] | IC50 (BALB/3T3 cells; normal mice fibroblast cells) [µM] |
| --- | --- | --- | --- | --- | --- | --- | --- | --- | --- | --- | --- | --- | --- | --- | --- | --- |
|  |  |  |  |  |  |  |  |  |  |  |  |  | COc1cccc2c1C(=O)c1c(O)c3c(c(O)c1C2=O)C[C@@](O)(C(=O)CO)C[C@@H]3O[C@H]1C[C@H](N)[C@H](O)[C@H](C)O1 [Doxorubicin, doxorubicin, reference compound] | 55.81 |  |  |
| 329 ± 12.5 | 321 ± 11.1 | 200 ± 49.7 | > 625 | > 625 | 215 ± 51.9 |  |  |  |  |  |  |  | C[N+](C)(C)CCOP(=O)([O-])OC[C@@H](COC(=O)C=Cc1ccccc1)OC(=O)C=Cc1ccccc1 [Compound 3a, 1,2-Dicinnamoyl-sn-glycero-3-phosphocholine] | 1.65 | > 625 |  |
| 254 ± 11.6 | 214 ± 89.6 | 211.6 ± 1.3 | 296 ± 13.2 | 280 ± 8.8 | 236 ± 46.3 |  |  |  |  |  |  |  | CCCCCCCCCCCCCCCC(=O)O[C@H](COC(=O)C=Cc1cccc(OC)c1)COP(=O)([O-])OCC[N+](C)(C)C [Compound 10b, 1-3-Methoxycinnamoyl-2-palmitoyl-sn-glycero-3-phosphocholine] | 1.2 | 291 ± 5.6 |  |
| 32.1 ± 16.9 | 307 ± 12.5 | 210 ± 22.2 | 83.6 ± 45.1 | 286 ± 5.3 | 165 ± 25.4 |  |  |  |  |  |  |  | COc1cccc(C=CC(=O)OC[C@H](COP(=O)([O-])OCC[N+](C)(C)C)OC(=O)C=Cc2cccc(OC)c2)c1 [Compound 3b, 1,2-Di(3-methoxycinnamoyl)-sn-glycero-3-phosphocholine] | 0.15 | 297 ± 56.4 |  |
| > 625 | 480 ± 46.2 | 284 ± 26.6 | > 625 | > 625 | 359 ± 105 |  |  |  |  |  |  |  | O=C(O)/C=C/c1ccccc1 [Compound 1a, Cinnamic acid] |  | > 625 |  |
|  |  |  |  |  |  | 160 ± 61.7 | 84.1 ± 7.4 | 85.1 ± 11.9 | 272 ± 33.1 | 259 ± 16.7 | 30.5 ± 8.2 | 11 | 1-(3-Methoxycinnamoyl)-2-hydroxy-sn-glycero-3-phosphocholine [Compound 9b] | 1.88 |  | 154 ± 66.4 |
